{"source": "patent US10039742B2", "about": "“Sn-2-monoacylglycerols and lipid malabsorption” (Nestec S.A., priority 2010, dated 2018)", "assay": "Lipid maldigestion/malabsorption animal model obtained with Orlistat: EPA incorporation in red blood cells, plasma lipids and tissues", "assay_type": "in vivo, rats", "settings": "comparison between the groups receiving fish oil with or without Orlistat; day 7", "text": "Treatments: Control rats fed fish oil with or without Orlistat and rats fed NAG derivatives described in FIGS. 1A and 1B. Values are means±SEM (n=6).\nThe inventors tested their concept in a lipid malabsorption animal model. The lipid maldigestion/malabsorption conditions were obtained using Orlistat®, a well known pancreatic and gastric lipases inhibitor. Animals were fed with long-chain polyunsaturated fatty acid (LC-PUFA) supplements containing mainly eicosapentaenoic (EPA) acid. Fish oil was used as a source of triacylglycerols and different EPA glycerides, for example those of FIGS. 1A and 1B, were evaluated. At different time intervals the fatty acid profile of red blood cells and plasma lipids was assessed. At the end of the experiment, fatty acid profiles of different tissues were determined. […]\nThe concept was tested in a lipid maldigestion or malabsorption animal model. […] Fish oil was used as a source of triacylglycerols and the different EPA glycerides provided in FIGS. 1A and 1B were evaluated. […] At the end of the experiment, fatty acid profiles of different tissues were determined.\nThe main objective was to follow the level of EPA in red blood cell and plasma lipids. The main comparison evaluated was the difference in EPA level between groups receiving EPA derivatives (FIGS. 1A and 1B) in combination with Orlistat and the […] control group (fish oil+Orlistat)."}
{"molecule": "CCCCCCCCCCC[C@@H](C[C@@H]1OC(=O)[C@H]1CCCCCC)OC(=O)[C@H](CC(C)C)NC=O", "note": "[Orlistat]", "values": [{"measurement": "EPA incorporation in red blood cells", "value": "decrease EPA incorporation in red blood cells"}]}
